Results taken from patent US20080312187A1, “PHOSPHOINOSITIDE MODULATION FOR THE TREATMENT OF ALZHEIMER'S DISEASE” (priority 2005, published 2008).
“Also recorded” adds a separate entry of the source. Like-named read-outs stand apart in the source and are kept apart here.

Key:
Aβ42 [1] = assay: Aβ42 versus Aβ40 production in cell lines treated with ginsenosides; assay type: cell-based; details: cell lines and primary neurons
Description: (§1) Of note, γ-secretase inhibitors and non-steroidal anti-inflammatory drugs were not found to reverse these CCE defects (FIG. 17A-B). Ginsenosides such as (20S)Rg3 may therefore, unlike other Aβ42-lowering agents, also ameliorate the defect in CCE associated with Aβ. The following data support the role of PLCγ1 as a common upstream target modulating CCE as well as Aβ42 levels.

Aβ42 [2] = assay: Aβ42 in cultured hippocampal primary neurons from Tg2576 mice; assay type: cell-based, mouse; details: for Aβ42 in cultured hippocampal primary neurons: primary neurons from Tg2576 mice
Description: FIG. 15A-B. (A) Rk1 and (20S)Rg3 decrease Aβ42 in cultured hippocampal primary neurons from Ad-model Tg2576 mice.
as §1

Tg2576 mice = assay: Aβ42/Aβ40 ratio in brains of Tg2576 mice; assay type: in vivo, mouse; details: Tg2576 transgenic mice
Aβ42 [3] = assay: Aβ42 ELISA in Hela-APPsw cells transfected with siRNA against PLC isoforms and treated with Rg3; assay type: cell-based, human
Procedure: FIG. 18A-B. Role of PLC γ1 in Aβ42-lowering activity of ginsenosides. (A) Hela-APPsw cells transfected with specific siRNA against PLCβ3, PLC γ1 and PLC γ2 were treated with either DMSO or 15 μM Rg3 for 6 hr. The down regulation of PLCβ3, PLCγ1 and PLCγ2 was confirmed by Western blot using isoform-specific antibodies. (B) Effects of RNAi-mediated downregulation of PLC isoforms in the presence of Rg3 treatment. Aβ42 levels were measured in the conditioned media by ELISA. Aβ values are shown as percentage of control siRNA and are the mean ±s.d. from three independent experiments (*P<0.001, **P<0.01 using ANOVA followed by Dunnett's test). (77,78)
Hela cells stably expressing Swedish FAD mutant APP (Hela-APPsw cells) were treated with small interfering RNA (siRNA) selective against various PLCβ(β1-4) and PLCγ (γ1, 2) isoforms.

hippocampal slices = assay: Long-term potentiation (fEPSP slope) in hippocampal slices treated with Aβ42
Description: FIG. 5. […] The field excitatory post synaptic potential slope (FEPSP slope) in hippocampal slices that were untreated or treated with Aβ42 (Aβ) or Aβ42 and 20(S)Rg3 was monitored over time.
PIP2 modulation rescues Aβ oligomer-induced synaptic dysfunction.

PIP2 = assay: Steady-state PIP2 levels determined by HPLC in HeLa cells overexpressing APPsw; assay type: cell-based; details: HeLa cells stably overexpressing Swedish variant of human APP
Description: (§2) FIG. 2A-E. Changes in PIP2 levels correlate with Aβ42 biogenesis. PIP2 levels (A) and Aβ42 biogenesis (D) in HeLa cells overexpressing human APPsw treated with either PLC inhibitor edelfosine (EDEL) or its active analog miltefosine (MILT). PIP2 levels (B) and Aβ42 biogenesis (E) in HeLa cells overexpressing human APPsw treated with PLC activator m-3m3FBS (M3M). (C) Modulation of PIP2 levels correlates with Aβ42 biogenesis. HeLa cells stably overexpressing the Swedish variant of human APP were treated with either control (DMSO), PLC inhibitor edelfosine (EDEL) or its active analog miltefosine (MILT). Steady-state PIP2 levels were determined by HPLC.

Aβ42 [4] = assay: Aβ42 biogenesis in HeLa cells overexpressing APPsw; assay type: cell-based; details: HeLa cells stably overexpressing Swedish variant of human APP
Description: as §2

α-secretase (sAPPα) = assay: Secreted APP ectodomain generated by α-secretase (sAPPα) in conditioned media of HeLa APPsw cells; assay type: cell-based, human; details: HeLa cells stably expressing APPsw
Procedure: (§3) FIG. 3A-F. PIP2 levels modulate Aβ biogenesis via two mechanisms. PIP2 levels modulate the release of soluble APP ectodomain into the medium. HeLa cells stably expressing APPsw were treated with either PLC inhibitors (EDEL, MILT) or PLC activator (M3M). Conditioned cell media were analyzed for secreted APP ectodomains generated by α-(sAPPα) (A) and β-secretase (sAPPβ) (B) cleavage. Aβ42 (D) and total Aβ biogenesis (C) in HEK293 cells transiently transfected with C99, C-terminal stub of APP that serves as a direct γ-secretase substrate, in the presence of PIP2 level modulator, EDEL. Aβ42 (F) and total Aβ biogenesis (E) in HEK293 cells transiently transfected with C99, C-terminal stub of APP that serves as a direct γ-secretase substrate, in the presence of PIP2 level modulator, M3M.
(§4) PIP2 levels modulate Aβ biogenesis via two distinct mechanisms. The metabolites of PIP2, including IP3 and DAG, have been implicated in APP processing pathways (69, 70, 71). Under normal conditions, PIP2 hydrolysis (to generate IP3 and DAG) favors the generation of α-secretase-generated secreted APP ectodomain (sAPPα). […] To more clearly define the role of PIP2 in modulating γ-secretase activity (e.g. Aβ42), we next expressed an APP-C99 construct, an ectopic γ-secretase substrate which resembles β-secretase-generated, membrane-associated APP stub in heterologous cells.

β-secretase (sAPPβ) = assay: Secreted APP ectodomain generated by β-secretase (sAPPβ) in conditioned media of HeLa APPsw cells; assay type: cell-based, human; details: HeLa cells stably expressing APPsw
Procedure: as §3, §4

full-length APP (FL-APP) = assay: Steady-state full-length APP by Western blot in treated HeLa APPsw cells; assay type: cell-based, human; details: Western blot analysis
Procedure: Full length APP and total Aβ biogenesis are not affected in treated cells. Modulation of PIP2 levels correlates with Aβ42 biogenesis. HeLa cells stably overexpressing the Swedish variant of human APP were treated with either control (DMSO), PLC inhibitor edelfosine (EDEL) or its active analog miltefosine (MILT). Steady-state PIP2 levels were determined by HPLC.

[5] = tested on: presenilin/γ-secretase (Aβ42); assay: Aβ42 biogenesis in HEK293 cells transiently transfected with C99 (direct γ-secretase substrate); assay type: cell-based
Procedure: as §3, §4

In the case of `CC(C)=CCC[C@](C)(O)[C@H]1CC[C@]2(C)[C@@H]1[C@H](O)C[C@@H]1[C@@]3(C)CC[C@H](O[C@@H]4O[C@H](CO)[C@@H](O)[C@H](O)[C@H]4O[C@@H]4O[C@H](CO)[C@@H](O)[C@H](O)[C@H]4O)C(C)(C)[C@@H]3CC[C@]12C` [(20S)Rg3], the “Aβ37 and Aβ38” value (Aβ42 [1]) is reported as “concomitant increase”, the “Aβ42 production relative to Aβ40” value (Aβ42 [1]) is reported as “preferentially lower the production of Aβ42; also recorded: also selectively decreases Aβ42 relative to Aβ40” and the “Aβ42/Aβ40 ratio in cultured neurons” value (Aβ42 [2]; cultured neurons) is reported as “decreased Aβ42/Aβ40 ratio”. The “Aβ42 in cultured hippocampal primary neurons” value (Aβ42 [2]) was “decrease Aβ42”, the “Aβ42/Aβ40 ratio in the brains” value (Tg2576 mice) was “decreases the ratio of Aβ42 to Aβ40” and the “Aβ42/Aβ40 ratio in the brains” value (Tg2576 mice; listed as Rg3) was “decreased Aβ42/Aβ40 ratio”. For the same molecule, the “Aβ42-lowering effect with PLCβ3 expression inhibited by siRNA” value (Aβ42 [3]; 15 μM Rg3 for 6 hr, PLCβ3 siRNA) was “nearly abolished”, the “Aβ42-lowering effect with PLCγ1 expression inhibited by siRNA” value (Aβ42 [3]; 15 μM Rg3 for 6 hr, PLCγ1 siRNA) was “nearly abolished” and the “reduction of Aβ42 generation when PLCγ1 levels are suppressed (dose-response experiments)” value (Aβ42 [3]; PLCγ1 suppressed) was “far less effective”. For the same molecule, the “long-term potentiation (fEPSP slope) in the presence of Aβ42” value (“long-term potentiation (fEPSP slope)” below) (hippocampal slices) was “blocks Abeta oligomer-induced inhibition of long-term potentitation”, the “long-term potentiation (fEPSP slope)” value (hippocampal slices; listed as 20(S)Rg3) was “increases LTP expression relative to untreated hippocampal slices” and the “long-term potentiation (fEPSP slope)” value (hippocampal slices; listed as SMT-3) was “blocks Aβ42 oligomer-induced synaptic dysfunction”.

With `CCCCCCCCCCCCCCCCCCOCC(COP(=O)([O-])OCC[N+](C)(C)C)OC` (stereo not shown) [edelfosine, Edelfosine] the “increase in the steady-state levels of PIP2” value (PIP2; vs control (DMSO)) was roughly 10% and the “decrease in the levels of Aβ42” value (Aβ42 [4]; vs control (DMSO)) was 37.3%.

For `CCCCCCCCCCCCCCCCOP(=O)([O-])OCC[N+](C)(C)C` [miltefosine], the sAPPα generation (α-secretase (sAPPα)) was “increases in sAPPα generation” and the sAPPβ secretion (β-secretase (sAPPβ)) was “reduction in sAPPβ secretion”.

`Cc1cc(C)c(S(=O)(=O)Nc2cccc(C(F)(F)F)c2)c(C)c1` [m-3m3FBS] was tested, and the “effect on steady-state levels of full-length APP (FL-APP)” value (full-length APP (FL-APP)) was “No significant effects”, the “decrease in the steady state levels of PIP2” value (PIP2) was roughly 11% and the sAPPα generation (α-secretase (sAPPα)) was “decreases in sAPPα”. The “increase in Aβ42” value (Aβ42 [4]) was 37.2%, the “effect on Aβ42 in C99-transfected cells” value [5] was “Aβ42-promoting activity” and the sAPPβ secretion (β-secretase (sAPPβ)) was “dramatic increase”.

With `C=C(CCC=C(C)C)[C@H]1CC[C@]2(C)[C@@H]1[C@H](O)C[C@@H]1[C@@]3(C)CC[C@H](O[C@@H]4O[C@H](CO)[C@@H](O)[C@H](O)[C@H]4O[C@@H]4O[C@H](CO)[C@@H](O)[C@H](O)[C@H]4O)C(C)(C)[C@@H]3CC[C@]12C` [Rk1] the “Aβ37 and Aβ38” value (Aβ42 [1]) was “concomitant increase”, the “Aβ42 production relative to Aβ40” value (Aβ42 [1]) was “preferentially lower the production of Aβ42; also recorded: selectively decreases Aβ42 relative to Aβ40” and the “Aβ42 in cultured hippocampal primary neurons” value (Aβ42 [2]) was “decrease Aβ42”.
